Key:
[1] = biological target: cAMP-dependent protein kinase catalytic subunit alpha (Bos taurus) (UniProt P00517); experiment: The assay is based on the kinase-bound labeled fluorescent probe can be displaced by competitive inhibitors, which can be registered by measurement of the resulting change in fluorescence properties of the solution. The binding curves were fitted using GraphPad Prism version 4.03 using sigmoidal dose-respons; details: pH 7.5
[2] = biological target: cAMP-dependent protein kinase catalytic subunit alpha (Bos taurus) (UniProt P00517); experiment: The IC50 values of the inhibitors corresponding to the concentration of the inhibitor decreasing the enzyme activity 50% were measured using fluorescent-labeled substrate. The phosphorylation reaction was initiated by the addition of ATP. At fixed time points, the reaction was analyzed by normal phase TLC. The visualization and quantification
[3] = biological target: RAC-gamma serine/threonine-protein kinase (Homo sapiens, UniProt Q9Y243); experiment: Fluorometric TLC Kinase Assay
Chain of RAC-gamma serine/threonine-protein kinase (Q9Y243 whole entry): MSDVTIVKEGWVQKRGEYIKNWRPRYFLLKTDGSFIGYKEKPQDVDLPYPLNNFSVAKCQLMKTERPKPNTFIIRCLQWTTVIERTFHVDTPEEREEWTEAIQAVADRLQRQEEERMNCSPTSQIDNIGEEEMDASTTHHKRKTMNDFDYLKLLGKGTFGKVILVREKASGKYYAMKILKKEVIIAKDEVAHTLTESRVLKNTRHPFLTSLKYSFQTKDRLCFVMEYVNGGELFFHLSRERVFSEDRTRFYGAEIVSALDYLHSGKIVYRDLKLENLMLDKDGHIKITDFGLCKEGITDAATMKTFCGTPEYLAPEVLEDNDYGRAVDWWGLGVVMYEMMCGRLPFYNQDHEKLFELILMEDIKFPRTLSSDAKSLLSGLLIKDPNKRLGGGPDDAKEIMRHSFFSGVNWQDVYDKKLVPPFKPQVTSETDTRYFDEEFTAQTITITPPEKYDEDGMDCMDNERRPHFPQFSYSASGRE

Structure (SMILES)	Kd [1] [nM]	IC50 [2] [nM]	IC50 [3] [nM]
O=S(=O)(NCCNC/C=C/c1ccc(Br)cc1)c1cccc2cnccc12	23	–	–
N=C(N)NCCC[C@@H](NC(=O)[C@@H](CCCNC(=N)N)NC(=O)[C@@H](CCCNC(=N)N)NC(=O)[C@@H](CCCNC(=N)N)NC(=O)[C@@H](CCCNC(=N)N)NC(=O)[C@@H](CCCNC(=N)N)NC(=O)CCCCCNC(=O)[C@H]1O[C@@H](n2cnc3c(N)ncnc32)[C@H](O)[C@@H]1O)C(N)=O	–	8.3	–
C[C@@H](NC(=O)CCCCCNC(=O)[C@@H]1C[C@@H](O)[C@H](n2cnc3c(N)ncnc32)C1)C(=O)NCCCCCC(=O)N[C@H](CCCNC(=N)N)C(=O)N[C@H](CCCNC(=N)N)C(N)=O [6-{[(1S,3R,4R)-3-(6-amino-9H-purin-9-yl)-4-hydroxycyclopentyl]formamido}-N-[(1R)-1-[(5-{[(1R)-4-carbamimidamido-1-{[(1R)-4-carbamimidamido-1-carbamoylbutyl]carbamoyl}butyl]carbamoyl}pentyl)carbamoyl]ethyl]hexanamide]	–	–	2040
NC(=O)[C@@H](CCCN=C(N)N)NC(=O)[C@@H](CCCN=C(N)N)NC(=O)[C@@H](CCCN=C(N)N)NC(=O)[C@@H](CCCN=C(N)N)NC(=O)[C@@H](CCCN=C(N)N)NC(=O)[C@@H](CCCN=C(N)N)NC(=O)CCCCCNC(=O)[C@@H]1C[C@@H](O)[C@H](n2cnc3c(N)ncnc32)C1 [6-{[(1S,3R,4R)-3-(6-amino-9H-purin-9-yl)-4-hydroxycyclopentyl]formamido}-N-[(1R)-4-carbamimidamido-1-{[(1R)-4-carbamimidamido-1-{[(1R)-4-carbamimidamido-1-{[(1R)-4-carbamimidamido-1-{[(1R)-4-carbamimidamido-1-{[(1R)-4-carbamimidamido-1-carbamoylbutyl]carbamoyl}butyl]carbamoyl}butyl]carbamoyl}butyl]carbamoyl}butyl]carbamoyl}butyl]hexanamide]	–	2.41	–
NC(=O)[C@H](Cc1ccc(C(=O)c2ccccc2)cc1)NC(=O)CCCCCNC(=O)[C@H]1O[C@@H](n2cnc3c(N)ncnc32)[C@H](O)[C@@H]1O [6-{[(2S,3S,4R,5R)-5-(6-amino-9H-purin-9-yl)-3,4-dihydroxyoxolan-2-yl]formamido}-N-[(1S)-2-(4-benzoylphenyl)-1-carbamoylethyl]hexanamide]	> 100000	–	–
N=C(N)NCCC[C@@H](NC(=O)[C@@H](CCCNC(=N)N)NC(=O)[C@@H](CCCNC(=N)N)NC(=O)[C@@H](CCCNC(=N)N)NC(=O)[C@@H](CCCNC(=N)N)NC(=O)[C@@H](CCCNC(=N)N)NC(=O)CCCCCNC(=O)[C@@H](CCCCN)NC(=O)CCCCCNC(=O)[C@H]1O[C@@H](n2cnc3c(N)ncnc32)[C@H](O)[C@@H]1O)C(N)=O [(2R)-6-amino-2-(6-{[(2S,3S,4R,5R)-5-(6-amino-9H-purin-9-yl)-3,4-dihydroxyoxolan-2-yl]formamido}hexanamido)-N-(5-{[(1R)-4-carbamimidamido-1-{[(1R)-4-carbamimidamido-1-{[(1R)-4-carbamimidamido-1-{[(1R)-4-carbamimidamido-1-{[(1R)-4-carbamimidamido-1-{[(1R)-4-carbamimidamido-1-carbamoylbutyl]carbamoyl}butyl]carbamoyl}butyl]carbamoyl}butyl]carbamoyl}butyl]carbamoyl}butyl]carbamoyl}pentyl)hexanamide]	< 0.5	–	–
NC(=O)[C@@H](CCCN=C(N)N)NC(=O)[C@@H](CCCN=C(N)N)NC(=O)[C@@H](CCCN=C(N)N)NC(=O)[C@@H](CCCN=C(N)N)NC(=O)[C@@H](CCCN=C(N)N)NC(=O)[C@@H](CCCN=C(N)N)NC(=O)CCCCCNCCNS(=O)(=O)c1cccc2cnccc12 [N-[(1R)-4-carbamimidamido-1-{[(1R)-4-carbamimidamido-1-{[(1R)-4-carbamimidamido-1-{[(1R)-4-carbamimidamido-1-{[(1R)-4-carbamimidamido-1-{[(1R)-4-carbamimidamido-1-carbamoylbutyl]carbamoyl}butyl]carbamoyl}butyl]carbamoyl}butyl]carbamoyl}butyl]carbamoyl}butyl]-6-{[2-(isoquinoline-5-sulfonamido)ethyl]amino}hexanamide]	–	5.3	30.7

— BindingDB's records for doi:10.1021/jm800797n (University of Tartu, 2009)
